# Key:
# Test in all cases: relative viability (nuclei count vs DMSO), 5 days (fraction); higher = more cells survive
# GSK-J4 + Pemetrexed = compound: CCOC(=O)CCNc1cc(N2CCc3ccccc3CC2)nc(-c2ccccn2)n1 [GSK-J4] + Nc1nc2[nH]cc(CCc3ccc(C(=O)N[C@@H](CCC(=O)O)C(=O)O)cc3)c2c(=O)[nH]1 [Pemetrexed] (partner 0.2 µM)
# Procedure, shortened: (§1)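 Lung cancer cell lines were seeded in 1536-well plates and dosed by pin tool the next day, with either a single drug or a fixed anchor-drug dose combined with five library-drug doses (not always all listed) spaced in √10 steps. Five days later, one step fixed the cells and stained their nuclei (final 0.05% Triton X-100, 1% formaldehyde, 1 ug/ml Hoechst), and nuclei were counted on 4× images. Relative viability is the nuclei count in treated wells divided by the count in vehicle wells, and each value is the median of duplicate plates.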
# AZ3146 + Trametinib = compound: CN1CCC(CC1)OC2=CC(=C(C=C2)NC3=NC=C4C(=N3)N(C(=O)N4C)C5CCCC5)OC [AZ3146] + CC(=O)Nc1cccc(-n2c(=O)n(C3CC3)c(=O)c3c(Nc4ccc(I)cc4F)n(C)c(=O)c(C)c32)c1 [Trametinib] (partner 0.02 µM)
# Procedure, shortened: as §1
# AZ3146 + Foretinib = compound: CN1CCC(CC1)OC2=CC(=C(C=C2)NC3=NC=C4C(=N3)N(C(=O)N4C)C5CCCC5)OC [AZ3146] + COc1cc2c(Oc3ccc(NC(=O)C4(C(=O)Nc5ccc(F)cc5)CC4)cc3F)ccnc2cc1OCCCN1CCOCC1 [Foretinib] (partner 0.25 µM)
# Procedure, shortened: as §1
# AZ3146 + Pemetrexed = compound: CN1CCC(CC1)OC2=CC(=C(C=C2)NC3=NC=C4C(=N3)N(C(=O)N4C)C5CCCC5)OC [AZ3146] + Nc1nc2[nH]cc(CCc3ccc(C(=O)N[C@@H](CCC(=O)O)C(=O)O)cc3)c2c(=O)[nH]1 [Pemetrexed] (partner 0.2 µM)
# Procedure, shortened: as §1
cell line,measurement,setting,value
HOP-62,relative viability,GSK-J4 + Pemetrexed; first compound 0.5 µM,0.316
same,relative viability,GSK-J4 + Pemetrexed; first compound 1.581 µM,0.3
same,relative viability,GSK-J4 + Pemetrexed; first compound 5 µM,0.324
same,relative viability,GSK-J4 + Pemetrexed; first compound 15.81 µM,0.329
same,relative viability,GSK-J4 + Pemetrexed; first compound 50 µM,0.364
same,relative viability,AZ3146 + Trametinib; first compound 0.08 µM,0.451
same,relative viability,AZ3146 + Trametinib; first compound 0.253 µM,0.354
same,relative viability,AZ3146 + Trametinib; first compound 0.8 µM,0.325
same,relative viability,AZ3146 + Trametinib; first compound 2.53 µM,0.387
same,relative viability,AZ3146 + Trametinib; first compound 8 µM,0.389
same,relative viability,AZ3146 + Foretinib; first compound 0.08 µM,1.06
same,relative viability,AZ3146 + Foretinib; first compound 0.253 µM,1.16
same,relative viability,AZ3146 + Foretinib; first compound 0.8 µM,1.01
same,relative viability,AZ3146 + Foretinib; first compound 2.53 µM,1.11
same,relative viability,AZ3146 + Foretinib; first compound 8 µM,1.08
same,relative viability,AZ3146 + Pemetrexed; first compound 0.08 µM,0.242
same,relative viability,AZ3146 + Pemetrexed; first compound 0.253 µM,0.328
same,relative viability,AZ3146 + Pemetrexed; first compound 0.8 µM,0.339
same,relative viability,AZ3146 + Pemetrexed; first compound 2.53 µM,0.305
same,relative viability,AZ3146 + Pemetrexed; first compound 8 µM,0.365
LXF-289,relative viability,GSK-J4 + Pemetrexed; first compound 0.5 µM,0.835
same,relative viability,GSK-J4 + Pemetrexed; first compound 1.581 µM,0.776
same,relative viability,GSK-J4 + Pemetrexed; first compound 5 µM,0.931
same,relative viability,GSK-J4 + Pemetrexed; first compound 15.81 µM,0.805
same,relative viability,GSK-J4 + Pemetrexed; first compound 50 µM,0.813
same,relative viability,AZ3146 + Trametinib; first compound 0.08 µM,0.629
same,relative viability,AZ3146 + Trametinib; first compound 0.253 µM,0.688
same,relative viability,AZ3146 + Trametinib; first compound 0.8 µM,0.633
same,relative viability,AZ3146 + Trametinib; first compound 2.53 µM,0.651
same,relative viability,AZ3146 + Trametinib; first compound 8 µM,0.633
same,relative viability,AZ3146 + Foretinib; first compound 0.08 µM,0.905
same,relative viability,AZ3146 + Foretinib; first compound 0.253 µM,0.989
same,relative viability,AZ3146 + Foretinib; first compound 0.8 µM,0.952
same,relative viability,AZ3146 + Foretinib; first compound 2.53 µM,0.978
same,relative viability,AZ3146 + Foretinib; first compound 8 µM,0.914
same,relative viability,AZ3146 + Pemetrexed; first compound 0.08 µM,0.953
same,relative viability,AZ3146 + Pemetrexed; first compound 0.253 µM,0.85
same,relative viability,AZ3146 + Pemetrexed; first compound 0.8 µM,0.912
same,relative viability,AZ3146 + Pemetrexed; first compound 2.53 µM,0.924
same,relative viability,AZ3146 + Pemetrexed; first compound 8 µM,0.799
LCLC-103H,relative viability,GSK-J4 + Pemetrexed; first compound 0.5 µM,0.483
same,relative viability,GSK-J4 + Pemetrexed; first compound 1.581 µM,0.374
same,relative viability,GSK-J4 + Pemetrexed; first compound 5 µM,0.378
same,relative viability,GSK-J4 + Pemetrexed; first compound 15.81 µM,0.42
same,relative viability,GSK-J4 + Pemetrexed; first compound 50 µM,0.509
same,relative viability,AZ3146 + Trametinib; first compound 0.08 µM,0.619
same,relative viability,AZ3146 + Trametinib; first compound 0.253 µM,0.663
same,relative viability,AZ3146 + Trametinib; first compound 0.8 µM,0.721
same,relative viability,AZ3146 + Trametinib; first compound 2.53 µM,0.666
same,relative viability,AZ3146 + Trametinib; first compound 8 µM,0.653
same,relative viability,AZ3146 + Foretinib; first compound 0.08 µM,0.749
same,relative viability,AZ3146 + Foretinib; first compound 0.253 µM,0.81
same,relative viability,AZ3146 + Foretinib; first compound 0.8 µM,0.749
same,relative viability,AZ3146 + Foretinib; first compound 2.53 µM,0.966
same,relative viability,AZ3146 + Foretinib; first compound 8 µM,0.657
same,relative viability,AZ3146 + Pemetrexed; first compound 0.08 µM,0.429
same,relative viability,AZ3146 + Pemetrexed; first compound 0.253 µM,0.439
same,relative viability,AZ3146 + Pemetrexed; first compound 0.8 µM,0.444
same,relative viability,AZ3146 + Pemetrexed; first compound 2.53 µM,0.49
same,relative viability,AZ3146 + Pemetrexed; first compound 8 µM,0.499
NCI-H441,relative viability,GSK-J4 + Pemetrexed; first compound 0.5 µM,0.26
same,relative viability,GSK-J4 + Pemetrexed; first compound 1.581 µM,0.226
same,relative viability,GSK-J4 + Pemetrexed; first compound 5 µM,0.303
same,relative viability,GSK-J4 + Pemetrexed; first compound 15.81 µM,0.249
same,relative viability,GSK-J4 + Pemetrexed; first compound 50 µM,0.284
same,relative viability,AZ3146 + Trametinib; first compound 0.08 µM,0.512
same,relative viability,AZ3146 + Trametinib; first compound 0.253 µM,0.438
same,relative viability,AZ3146 + Trametinib; first compound 0.8 µM,0.429
same,relative viability,AZ3146 + Trametinib; first compound 2.53 µM,0.501
same,relative viability,AZ3146 + Trametinib; first compound 8 µM,0.362
same,relative viability,AZ3146 + Foretinib; first compound 0.08 µM,0.92
same,relative viability,AZ3146 + Foretinib; first compound 0.253 µM,0.949
same,relative viability,AZ3146 + Foretinib; first compound 0.8 µM,1.06
same,relative viability,AZ3146 + Foretinib; first compound 2.53 µM,1
same,relative viability,AZ3146 + Foretinib; first compound 8 µM,1.07
same,relative viability,AZ3146 + Pemetrexed; first compound 0.08 µM,0.256
same,relative viability,AZ3146 + Pemetrexed; first compound 0.253 µM,0.251
same,relative viability,AZ3146 + Pemetrexed; first compound 0.8 µM,0.251
same,relative viability,AZ3146 + Pemetrexed; first compound 2.53 µM,0.266
same,relative viability,AZ3146 + Pemetrexed; first compound 8 µM,0.274
BEN,relative viability,GSK-J4 + Pemetrexed; first compound 0.5 µM,0.933
same,relative viability,GSK-J4 + Pemetrexed; first compound 1.581 µM,0.759
same,relative viability,GSK-J4 + Pemetrexed; first compound 5 µM,0.501
same,relative viability,GSK-J4 + Pemetrexed; first compound 15.81 µM,0.731
same,relative viability,GSK-J4 + Pemetrexed; first compound 50 µM,0.573
same,relative viability,AZ3146 + Trametinib; first compound 0.253 µM,1
same,relative viability,AZ3146 + Trametinib; first compound 0.8 µM,1.05
same,relative viability,AZ3146 + Trametinib; first compound 2.53 µM,0.971
same,relative viability,AZ3146 + Trametinib; first compound 8 µM,1.04
same,relative viability,AZ3146 + Foretinib; first compound 0.253 µM,0.447
same,relative viability,AZ3146 + Foretinib; first compound 0.8 µM,0.587
same,relative viability,AZ3146 + Foretinib; first compound 2.53 µM,0.715
same,relative viability,AZ3146 + Foretinib; first compound 8 µM,0.698
same,relative viability,AZ3146 + Pemetrexed; first compound 0.253 µM,0.641
same,relative viability,AZ3146 + Pemetrexed; first compound 0.8 µM,0.651
same,relative viability,AZ3146 + Pemetrexed; first compound 2.53 µM,0.75
same,relative viability,AZ3146 + Pemetrexed; first compound 8 µM,0.8
NCI-H2009,relative viability,GSK-J4 + Pemetrexed; first compound 0.5 µM,0.964
same,relative viability,GSK-J4 + Pemetrexed; first compound 1.581 µM,0.846
same,relative viability,GSK-J4 + Pemetrexed; first compound 5 µM,0.769
same,relative viability,GSK-J4 + Pemetrexed; first compound 15.81 µM,0.997
same,relative viability,GSK-J4 + Pemetrexed; first compound 50 µM,0.576
same,relative viability,AZ3146 + Trametinib; first compound 0.08 µM,0.286
same,relative viability,AZ3146 + Trametinib; first compound 0.253 µM,0.301
same,relative viability,AZ3146 + Trametinib; first compound 0.8 µM,0.271
same,relative viability,AZ3146 + Trametinib; first compound 2.53 µM,0.273
same,relative viability,AZ3146 + Trametinib; first compound 8 µM,0.238
same,relative viability,AZ3146 + Foretinib; first compound 0.08 µM,1.11
same,relative viability,AZ3146 + Foretinib; first compound 0.253 µM,1.28
same,relative viability,AZ3146 + Foretinib; first compound 0.8 µM,1.26
same,relative viability,AZ3146 + Foretinib; first compound 2.53 µM,1.22
same,relative viability,AZ3146 + Foretinib; first compound 8 µM,0.957
same,relative viability,AZ3146 + Pemetrexed; first compound 0.08 µM,1.05
same,relative viability,AZ3146 + Pemetrexed; first compound 0.253 µM,0.996
same,relative viability,AZ3146 + Pemetrexed; first compound 0.8 µM,1.04
same,relative viability,AZ3146 + Pemetrexed; first compound 2.53 µM,0.989
same,relative viability,AZ3146 + Pemetrexed; first compound 8 µM,1.03

# Source: the supplement of paper PMC10307832
